From patent US10183047B2, “Chromium-containing compositions in combination with Phyllanthus emblica and shilajit having synergistic effects for improving endothelial function and cardiovascular health” (Natreon, Inc., priority 2014, dated 2019)

Tests used:
Assay type in all cases: in vivo, human
lipid profile [1] = test: Lipid profile (TC, HDL-C, LDL-C, TG, VLDL-C), type 2 diabetics
Procedure: (§1) The present clinical study is a prospective, randomized, double blind, placebo-controlled study. Patients of either sex, aged 30-65 years, fasting plasma glucose of 110-126 mg/dl, a glycosylated hemoglobin (HbA1c) between 6.5% and 8% and taking stable dose of anti-diabetic treatment (metformin 1500-2000 mg/day) for the past 8 weeks prior to the screening visit; and having endothelial dysfunction defined as ≤6% change in reflection index (RI) on post salbutamol challenge test were included in the study. Patients with severe uncontrolled hyperglyceamia, uncontrolled hypertension, cardiac arrhythmia, impaired hepatic or renal function, history of malignancy or stroke, smoking, chronic alcoholism, any other serious disease requiring active treatment and treatment with any other herbal supplements, were excluded from the study.
(§2) After screening, all the eligible subjects were randomized to receive either one of the three treatments orally for duration of 12 weeks—Group1—one capsule of Crominex®3+, 200 mcg once daily, Group 2—one capsule Crominex®3+, 400 mcg once daily; Group 3—one capsule of placebo once daily.
(§3) Subjects were required for follow up at 4, 8 and 12 weeks of therapy. At each visit they were evaluated for efficacy and safety. Pharmacodynamic evaluation for endothelial function was conducted at every visit. Blood samples were collected for evaluation of biomarkers before and at the end of treatment. Safety lab investigations for hematological, hepatic and renal biochemical parameters were conducted before and at the end of the study and also as and when required (in case of any adverse drug reaction (ADR). Subjects were enquired for the presence of ADR and the same was recorded in the case report form. Compliance to therapy was assessed by pill count method.
(§4) All the subjects had undergone complete physical examination, safety lab evaluations at baseline and at the end of the treatment. Samples were collected after an overnight fast of 12 hrs after the last dose of medication for determination of hemoglobin, glycosylated hemoglobin (HbA1c), blood urea, serum creatinine, liver function, lipid profile (Total cholesterol, High density lipoprotein cholesterol (HDL-C), low density lipoprotein cholesterol (LDL-C) using appropriate standard techniques.
(§5) When the results with Crominex® 3+ in the above two examples were highly significant, especially with the 400 mcg once daily dose in type 2 diabetics, two more clinical studies (EXAMPLES 3 & 4) were conducted at the same institute, following the same methodology as described earlier, on the individual components of Crominex® 3+, i.e., chromium chloride and Phyllanthus emblica+Shilajit, and other chromium supplements available in the market, i.e., chromium picolinate, chromium polynicotinate and chromium dinicocysteinate, in type 2 diabetics as well as in subjects with metabolic syndrome symptoms.

glutathione (GSH) = test: Glutathione level, metabolic syndrome subjects
Procedure: (§6) Nitric oxide, MDA, Glutathione and levels were estimated spectrophotometrically as follows. Malondialdehyde (MDA) levels were determined as described in Vidyasagar, et al., “Oxidative stress and antioxidant status in acute organophosphorous insecticide poisoning,” Indian J. Pharmacol. (April 2004) 36(2): 76-79. Glutathione levels were determined as described in G. L. Ellman, Arch. Biochem. Biophys. (1959) 82: 70-77 (original determination). Nitric oxide levels were estimated spectrophotometrically as described in Miranda, et al., “A Rapid, Simple Spectrophotometric Method for Simultaneous Detection of Nitrate and Nitrite,” NITRIC OXIDE: Biology and Chemistry (2001) Vol. 5, No. 1, pp. 62-71. hsCRP (high sensitivity C-reactive protein) was determined by ELISA method.
(§7) Patients included in the study, were of either gender, aged 30-68 years, having endothelial dysfunction defined as ≤6% change in reflection index (RI) on post salbutamol challenge test and central obesity as defined by The International Diabetes Federation guidelines, dated 2006, and any two of the following conditions:
(§8) After screening, all the eligible subjects were randomized to receive either one of the three treatments orally for duration of 12 weeks: group 1—one capsule of Crominex®3+ 200 mcg once daily; group 2—one capsule 400 mcg once daily; group 3—one capsule of Placebo once daily.
(§9) Subjects were reviewed for follow up at 4 weeks, 8 and 12 weeks of therapy. At each visit they were evaluated for efficacy and safety. Pharmacodynamic evaluation for endothelial function was conducted at baseline and end of treatment. Blood samples were collected for evaluation of biomarkers before and at end of treatment. Safety lab investigations for hematological, hepatic and renal biochemical parameters were conducted before and at the end of the study and also as and when required (in case of any adverse drug reaction (ADR)). Subjects were enquired for the presence of ADR and the same was recorded in the case report form. Compliance to therapy was assessed by pill count method.
(§10) Assessment of endothelial function, biomarkers, safety parameters and primary and secondary efficacy parameters and data analysis were performed as described under the study with type 2 diabetic subjects in Example 1.
as §5

fasting plasma glucose [2] = test: Fasting plasma glucose, metabolic syndrome subjects
Source text: as §7, §8, §9, §5

lipid profile [3] = test: Lipid profile (TC, HDL-C, LDL-C, TG), metabolic syndrome subjects
Source text: as §4
as §7, with “conditions: […]” for “conditions:”
as §9, §10, §5

nitric oxide (NO) [4] = test: Nitric oxide level, metabolic syndrome subjects
Procedure: as §6, §7, §8, §9, §10, §5

nitric oxide (NO) [5] = test: Nitric oxide level, spectrophotometric, type 2 diabetics
Procedure: as §1, §2, §3, §6, §5

fasting plasma glucose [6] = test: Fasting plasma glucose, type 2 diabetics
Procedure: as §5

[7] = type 2 diabetics (Example 3), chromium products 400 mcg, 12 weeks of treatment
[8] = type 2 diabetics (Example 3), chromium products 400 mcg, post-treatment, 12 weeks
[9] = type 2 diabetics (Example 3), chromium products 400 mcg, pre-treatment
[10] = metabolic syndrome subjects (Example 4), chromium products 400 mcg, after 12 weeks of treatment
[11] = metabolic syndrome subjects (Example 4), chromium products 400 mcg, after 12 weeks treatment
[12] = metabolic syndrome subjects (Example 4), chromium products 400 mcg, pre-treatment

## chromium polynicotinate
Lipid profile [1]; DM, 400 mcg
  HDL: −1.23%
  LDL: −0.38%
  TC: −0.68%
  TG: −0.68%
Lipid profile [1]; [7]
  Mean percentage change in HDL-C: −1.23 ± 3.71 @NS %
  Mean percentage change in LDL-C: −0.38 ± 2.10 @NS %
  Mean percentage change in Total Cholesterol: −0.68 ± 1.21$NS %
  Mean percentage change in Triglycerides: −0.68 ± 0.83 NS %
Lipid profile [1]; [8]
  HDL-C Post Tt: 38.65 ± 1.42 NS mg/dl
  LDL-C Post Tt: 123.32 ± 8.70 NS mg/dl
  Total Cholesterol Post Tt: 198.00 ± 8.64 $^ mg/dl
  Triglycerides Post Tt: 180.15 ± 3.84 @ mg/dl
Lipid profile [1]; [9]
  HDL-C Pre Tt: 39.15 ± 1.23 mg/dL
  LDL-C Pre Tt: 123.97 ± 9.73 mg/dL
  Total Cholesterol Pre Tt: 199.40 ± 9.25 mg/dL
  Triglycerides Pre Tt: 181.40 ± 4.47 mg/dL
Glutathione (GSH); MS, 400 mcg
  GSH: 5.1%
Glutathione (GSH); [10]
  GSH Post Tt: 549.43 ± 20.18 μM/L
Glutathione (GSH); [11]
  Mean percentage change in GSH: 5.09 ± 1.36%
Glutathione (GSH); [12]
  GSH Pre Tt: 522.92 ± 20.68 μM/L
Fasting plasma glucose [2]; MS, 400 mcg
  Fasting Glucose: −4.14%
Fasting plasma glucose [2]; [10]
  Fasting Plasma Glucose Post Tt: 95.95 ± 13.32 NS
Fasting plasma glucose [2]; [12]
  Fasting Plasma Glucose Pre Tt: 100.10 ± 14.00
Lipid profile [3]; MS, 400 mcg
  HDL: −1.55%
  LDL: 1.86%
  TC: 0.95%
  TG: 0.83%
Lipid profile [3]; mean percentage change after 12 weeks of treatment, 400 mcg, Example 4
  LDL-C, mean percentage change: 1.86%
Lipid profile [3]; [10]
  HDL-C Post Tt: 36.20 ± 5.15 NS mg/dl
  LDL-C Post Tt: 111.95 ± 12.95 mg/dL
  Mean percentage change in HDL-C: −1.55 ± 4.17%
  Mean percentage change in Total Cholesterol: 0.95 ± 1.33%
  Mean percentage change in Triglycerides: 0.83 ± 1.22%
  Total Cholesterol Post Tt: 182.75 ± 14.03 mg/dL
  Triglycerides Post Tt: 173.00 ± 9.33 mg/dL
Lipid profile [3]; [12]
  HDL-C Pre Tt: 36.85 ± 5.48 mg/dL
  LDL-C Pre Tt: 109.88 ± 12.76 mg/dL
  Total Cholesterol Pre Tt: 181.05 ± 13.98 mg/dL
  Triglycerides Pre Tt: 171.60 ± 9.43 mg/dL
Nitric oxide (NO) [4]; MS, 400 mcg
  NO: 5.35%
Nitric oxide (NO) [4]; [10]
  NO Post Tt: 32.93 ± 4.66 μM/L
Nitric oxide (NO) [4]; [11]
  Mean percentage change in NO: 5.35 ± 0.96%
Nitric oxide (NO) [4]; [12]
  NO Pre Tt: 31.26 ± 4.46 μM/L
Nitric oxide (NO) [5]; DM, 400 mcg
  NO: 5.33%
Nitric oxide (NO) [5]; type 2 diabetics (Example 3), chromium products 400 mcg, 12 week treatment
  Mean percentage change in NO: 5.33 ± 2.25 #@NS %
Nitric oxide (NO) [5]; [8]
  NO Post Tt: 31.86 ± 2.55 μM/L
Nitric oxide (NO) [5]; [9]
  NO Pre Tt: 30.26 ± 2.48 μM/L
Fasting plasma glucose [6]; DM, 400 mcg
  Fasting Glucose: 0.63%
Fasting plasma glucose [6]; [8]
  Fasting Plasma Glucose Post Tt: 136.3 ± 7.86 NS mg/dL
Fasting plasma glucose [6]; [9]
  Fasting Plasma Glucose Pre Tt: 135.45 ± 7.45 mg/dL
